In PubChem BioAssay (NCI):
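Growth conditions: 96-well plates. Treatment: test compound, 48 hours, 5 concentrations. Analysis: linear interpolation between bracketing concentrations; unreached endpoints set to highest concentration. TGI denotes the concentration required for complete inhibition of growth.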

Experiments:
Assay in all cases: NCI anticancer screen, dose series, 48 h
HL-60(TB) leukemia = test system: HL-60(TB) leukemia
U251 CNS = test system: U251 CNS
BT-549 breast = test system: BT-549 breast
NCI/ADR-RES ovarian = test system: NCI/ADR-RES ovarian
786-0 renal = test system: 786-0 renal
NCI-H460 lung = test system: NCI-H460 lung
SN12C renal = test system: SN12C renal
PC-3 prostate = test system: PC-3 prostate
SF-539 CNS = test system: SF-539 CNS
SF-268 CNS = test system: SF-268 CNS
SNB-75 CNS = test system: SNB-75 CNS
NCI-H522 lung = test system: NCI-H522 lung
SR leukemia = test system: SR leukemia
KM12 colon = test system: KM12 colon
MOLT-4 leukemia = test system: MOLT-4 leukemia
OVCAR-8 ovarian = test system: OVCAR-8 ovarian
UACC-62 melanoma = test system: UACC-62 melanoma
HOP-92 NSCLC = test system: HOP-92 NSCLC
SF-295 CNS = test system: SF-295 CNS
SNB-19 CNS = test system: SNB-19 CNS
SK-MEL-5 melanoma = test system: SK-MEL-5 melanoma
UO-31 renal = test system: UO-31 renal
NCI-H23 lung = test system: NCI-H23 lung
M14 melanoma = test system: M14 melanoma
HOP-62 NSCLC = test system: HOP-62 NSCLC
OVCAR-4 ovarian = test system: OVCAR-4 ovarian
NCI-H226 lung = test system: NCI-H226 lung
SK-MEL-2 melanoma = test system: SK-MEL-2 melanoma
CCRF-CEM leukemia = test system: CCRF-CEM leukemia
UACC-257 melanoma = test system: UACC-257 melanoma
ACHN renal = test system: ACHN renal
EKVX NSCLC = test system: EKVX NSCLC
OVCAR-5 ovarian = test system: OVCAR-5 ovarian
DU-145 prostate = test system: DU-145 prostate
T-47D breast = test system: T-47D breast
MDA-MB-435 = test system: MDA-MB-435
A498 renal = test system: A498 renal
HCC-2998 colon = test system: HCC-2998 colon
LOX IMVI melanoma = test system: LOX IMVI melanoma
RXF 393 renal = test system: RXF 393 renal
MDA-N = test system: MDA-N
CAKI-1 renal = test system: CAKI-1 renal
HCT-116 colon = test system: HCT-116 colon
IGROV1 ovarian = test system: IGROV1 ovarian
HS 578T breast = test system: HS 578T breast
OVCAR-3 ovarian = test system: OVCAR-3 ovarian
MDA-MB-231 breast = test system: MDA-MB-231 breast
SW-620 colon = test system: SW-620 colon
TK-10 renal = test system: TK-10 renal
MCF7 breast = test system: MCF7 breast
HCT-15 colon = test system: HCT-15 colon
COLO 205 colon = test system: COLO 205 colon
SK-OV-3 ovarian = test system: SK-OV-3 ovarian
A549 NSCLC = test system: A549 NSCLC
HT29 colon = test system: HT29 colon
MALME-3M melanoma = test system: MALME-3M melanoma
RPMI-8226 leukemia = test system: RPMI-8226 leukemia
SK-MEL-28 melanoma = test system: SK-MEL-28 melanoma
K-562 leukemia = test system: K-562 leukemia

Measured: TGI

CC(=O)O[C@@H]1[C@H]2[C@@H](OC(=O)c3ccccc3)[C@@H](C)C[C@]2(O)[C@H](OC(C)=O)[C@@]2(C)[C@@H]3CC(C)(C)C(=O)[C@]3(OC(C)=O)C[C@@]12C
> 25 µM: HL-60(TB) leukemia | U251 CNS | BT-549 breast | NCI/ADR-RES ovarian | 786-0 renal | NCI-H460 lung | SN12C renal | PC-3 prostate | SF-539 CNS | SF-268 CNS | SNB-75 CNS | NCI-H522 lung | SR leukemia | KM12 colon | MOLT-4 leukemia | OVCAR-8 ovarian | UACC-62 melanoma | HOP-92 NSCLC | SF-295 CNS | SNB-19 CNS | SK-MEL-5 melanoma | UO-31 renal | NCI-H23 lung | M14 melanoma | HOP-62 NSCLC | OVCAR-4 ovarian | NCI-H226 lung | SK-MEL-2 melanoma | CCRF-CEM leukemia | UACC-257 melanoma | ACHN renal | EKVX NSCLC | OVCAR-5 ovarian | DU-145 prostate | T-47D breast | MDA-MB-435 | A498 renal | HCC-2998 colon | LOX IMVI melanoma | RXF 393 renal | MDA-N | CAKI-1 renal | HCT-116 colon | IGROV1 ovarian | HS 578T breast | OVCAR-3 ovarian | MDA-MB-231 breast | SW-620 colon | TK-10 renal | MCF7 breast | HCT-15 colon | COLO 205 colon | SK-OV-3 ovarian

C=CCOC1=C(OCC=C)C(C2COC(C)(C)O2)OC1=O (configuration not stated)
34.9 µM: CAKI-1 renal
45.2 µM: NCI-H522 lung
83.3 µM: HOP-92 NSCLC
> 100 µM: HL-60(TB) leukemia | U251 CNS | BT-549 breast | NCI/ADR-RES ovarian | 786-0 renal | NCI-H460 lung | A549 NSCLC | SN12C renal | PC-3 prostate | SF-539 CNS | SF-268 CNS | SNB-75 CNS | SR leukemia | KM12 colon | MOLT-4 leukemia | HT29 colon | OVCAR-8 ovarian | UACC-62 melanoma | SF-295 CNS | SNB-19 CNS | SK-MEL-5 melanoma | UO-31 renal | NCI-H23 lung | M14 melanoma | HOP-62 NSCLC | OVCAR-4 ovarian | NCI-H226 lung | MALME-3M melanoma | SK-MEL-2 melanoma | CCRF-CEM leukemia | UACC-257 melanoma | ACHN renal | EKVX NSCLC | OVCAR-5 ovarian | DU-145 prostate | T-47D breast | MDA-MB-435 | RPMI-8226 leukemia | SK-MEL-28 melanoma | A498 renal | K-562 leukemia | HCC-2998 colon | LOX IMVI melanoma | RXF 393 renal | MDA-N | HCT-116 colon | IGROV1 ovarian | HS 578T breast | OVCAR-3 ovarian | MDA-MB-231 breast | SW-620 colon | TK-10 renal | MCF7 breast | HCT-15 colon | COLO 205 colon | SK-OV-3 ovarian
